pKi: −log10 of the molar value.
Assays:
Aromatase [1] = biological target: T1, Aromatase (Homo sapiens, UniProt P11511); experiment: In vitro inactivation of human placental Cytochrome P450 19A1
T1 sequence (P11511 whole entry): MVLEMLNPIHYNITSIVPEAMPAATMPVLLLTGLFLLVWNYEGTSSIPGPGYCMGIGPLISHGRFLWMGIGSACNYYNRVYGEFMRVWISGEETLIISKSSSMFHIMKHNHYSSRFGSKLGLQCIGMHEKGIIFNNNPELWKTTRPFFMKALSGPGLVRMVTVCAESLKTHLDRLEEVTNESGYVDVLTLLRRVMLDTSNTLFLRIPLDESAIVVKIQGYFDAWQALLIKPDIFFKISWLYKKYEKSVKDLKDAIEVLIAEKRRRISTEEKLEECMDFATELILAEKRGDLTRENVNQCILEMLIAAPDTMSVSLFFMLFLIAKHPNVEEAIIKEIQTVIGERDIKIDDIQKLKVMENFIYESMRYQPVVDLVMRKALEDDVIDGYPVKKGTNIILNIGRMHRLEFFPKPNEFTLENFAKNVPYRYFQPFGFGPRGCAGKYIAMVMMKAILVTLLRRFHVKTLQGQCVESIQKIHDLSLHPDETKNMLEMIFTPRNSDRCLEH

Aromatase [2] = biological target: T1, Aromatase; experiment: In vitro inhibition of Cytochrome P450 19A1
Aromatase [3] = biological target: T1, Aromatase; experiment: Effective dose for inhibition of extragonadal estrogen production in baboons; type: functional; conditions: papio hamadryas; target entry is the homologue from another species

Row | Structure (SMILES) | kinact (Aromatase [1]) | pKi (Aromatase [2]) | ED50 (Aromatase [3])
1 | C#CC[C@]12CCC(=O)C=C1CC[C@@H]1[C@@H]2CC[C@]2(C)C(=O)CC[C@@H]12 [PLOMESTANE] | 0.0011 s⁻¹ | 8.40 | 4 mg/kg
2 | C[C@]12C=CC(=O)C=C1CC[C@@H]1[C@@H]2CC[C@]2(C)OC(=O)CC[C@@H]12 [TESTOLACTONE] | 0.00036 s⁻¹ | 4.46 | –
3 | CC12CCC3C(CCC4=C(O)C(=O)CCC43C)C1CCCC2=O (configuration not stated) | 0.00041 s⁻¹ | 7.99 | –

— ChEMBL document CHEMBL1124665, “Is there a case for P-450 inhibitors in cancer treatment?” (J Med Chem, 1989)
